Two compounds from US20250152608A1, “CONTRACEPTIVE METHODS WITH IMPROVED PEARL INDEX” (ESTETRA SRL, priority 2022, published 2025) can be followed below.

Structures are written as SMILES.

This data set can be described thus: Solubility description. The data set is classed as physicochemical.

Regarding `C[C@]12CC[C@@H]3c4ccc(O)cc4CC[C@H]3[C@@H]1[C@@H](O)[C@@H](O)C2O` (stereo in doubt) [Estetrol monohydrate, estra-1,3,5(10)-triene-3,15α,16α,17α-tetrol monohydrate], the Solubility result (acetone) is listed as “sparingly soluble”; the Solubility entry (ethyl acetate and acetonitrile) is “slightly soluble”; the Solubility entry (methanol, ethanol) is reported as “soluble”; the Solubility entry (water and aqueous solutions) is listed as “poorly soluble”.

Turning to `C[C@]12CCC(=O)C=C1[C@@H]1C[C@@H]1[C@H]1[C@@H]3[C@@H]4C[C@@H]4[C@@]4(CCC(=O)O4)[C@@]3(C)CC[C@@H]12` [Drospirenone], under “water”, the Solubility result is “slight solubility”.
